One assay concerns P. acnes 6919 strain. Description: Adhesion assay, biotinylated P. acnes binding to HaCaT keratinocytes. It is filed as cell-based, Propionibacterium acnes. The note with it: P. acnes 6919 pre-treated with whole fibrinogen 0.01 to 0.5 mM, 1 h at 37° C. Here is the method: FIG. 12: Dose-dependent inhibition of P. acnes binding to keratinocytes. Biotinylated P. acnes 6919 strain at concentrations adjusted to 0.1 of absorbance at 600 nm was pre-treated with whole human (dark gray bar) and bovine (light gray bar) fibrinogen at the concentrations ranging from 0.01 to 0.5 mM and incubated 1 h at 37° C. with the human HaCaT keratinocyte cell line. After removal of unbound bacteria, adhesion activity was detected at 410 nm. Data are means±S.D. of three separate experiments. Statistical significance is indicated by * (P<0.05), ** (P<0.01), *** (P<0.001), and **** (P<0.0001), respectively.
The bacterial suspension was adjusted at 600 nm to the desired concentration, pretreated with peptides Fg1 and Fg2 at the final concentration ranging from 0.87 to 7 μM for 1 h at 37° C. and deposited on the previously saturated cells with a solution of PBS SVF 2% for 2 h. After incubation for 1 h at 37° C., unbound bacteria are removed by 3 washes with PBS and fixed bacteria are detected by a streptavidin-peroxidase solution of 0.5 μg/ml for 30 min.
Whole P. acnes bacteria are labelled by biotinylation, pre-treated or not with the peptides and contacted with the various cell lines. After removal of the unfixed bacteria, the adhesion activity was measured spectrophotometrically by using the streptavidin-peroxidase conjugate and a chromogenic substrate. […]

Assay [1] has as its system P. acnes surface proteins. Description: Binding of biotinylated ECM ligands to immobilized P. acnes surface proteins. More on the design: species or system Propionibacterium acnes. On the procedure: FIG. 2: Binding of P. acnes surface protein to purified human fibrinogen. (A) P. acnes surface proteins (0.8 to 50 μg/ml) were immobilized onto a 96-well polystyrene plate and probed with biotinylated fibrinogen (0.1 μg/ml) for 2 h at room temperature. (B) P. acnes surface proteins (25 μg/ml) were immobilized onto a 96-well polystyrene plate and probed with various concentrations of biotinylated fibrinogen ranging from 0.1 to 16 μg/ml for 2 h at room temperature. Bound biotinylated fibrinogen were detected with HRP-streptavidine as described in Materials and Methods.
To characterize the interaction between P. acnes and ligands, we used biotinylated molecules in quantitative and qualitative assays. In a first set of assays, ECM ligands (fibrinogen, collagens I, IV, VI and VIII) were used as labelled proteins with biotin. In a second set of assays, P. acnes surface proteins (total extract and purified Pfg) were biotinylated. For quantitative analysis, unlabeled protein were diluted into 50 mM carbonate-bicarbonate, pH 9.6 buffer to yield a protein concentration ranging from 0.01 to 50 μg/ml, and then immobilized to 96-well polystyrene plates at 4° C. overnight. […] After washing, bound peroxidase was detected using the chromogenic peroxidase substrate ABTS. […] Binding activity was detected by incubating the membranes with 20 ml of PBT containing biotinylated proteins (0.1 μg/ml) for 2 h at room temperature followed by three washes with PBT. Bound biotinylated proteins were detected by incubating the membrane with peroxidase conjugated to streptavidin (0.5 μg/ml in PBT) for 1 h at room temperature. After washing, bound peroxidase activity was detected using 3,3′-diaminobenzidine in the presence of CoCl2 and H2O2 (Harlow and Lane, 1988).
In order to identify P. acnes surface protein recognized by ECM ligands, we used the most commons ECM proteins recognize by skin related bacteria like collagens and fibrinogen. […] To identify surface proteins, P. acnes total heat protein extracts were electrophoretically separated and detected by silver staining (FIG. 1B). […]

Take “human fibrinogen: purified commercial human fibrinogen (Sigma), glycoprotein hexamer of Aα, Bß and γ chains”: the “Inhibition of adhesion of P. acnes to keratinocytes” value with P. acnes 6919 strain is listed as “able to inhibit the adhesion”. The “Binding activity of biotinylated ligand to immobilized P. acnes total surface protein” value in assay [1] (25 μg/ml of protein immobilized per well, various quantity of biotinylated Fg and Collagen I) was “strong binding activity”. The “P. acnes protein extract concentration at which the binding activity for fibrinogen reaches a plateau” value in assay [1] (several concentrations of protein extract immobilized, biotinylated fibrinogen 0.1 μg/ml) is on record as “about 6.25 μg/ml”.

Values taken from patent publication US10323078B2, “Isolated peptides and fragments thereof from fibrinogen for use as drugs, particularly in skin inflammatory diseases” (Universite Paris Descartes, priority 2015, dated 2019).
